Reference: patent US20200407365A1, “INDOLE-2-CARBONYL COMPOUNDS AND THEIR USE FOR THE TREATMENT OF HEPATITIS B” (Novartis AG, priority 2018, published 2020)

Tested on: HBV replication in HepG2.cl42 cells
Assay: Anti-HBV assay (HBV DNA by quantitative real time PCR in HepG2.cl42 cells)
Type: cell-based, HBV ayw strain
Conditions: Hepatitis B virus, 96 h, compound treatment four days, read-out: HBsAg EC50

| Structure (SMILES) | EC50 [nM] |
| --- | --- |
| COC[C@@H]1CN(c2cnn3c2CN(C(=O)c2cc4ccccc4[nH]2)CC3)C(=O)CO1 [Compound 1.3] | 100 to 1000 |
| CC1(C)CN(c2cnn3c2CN(C(=O)c2cc4ccccc4[nH]2)CC3)C(=O)CO1 [Compound 1.5] | 100 to 1000 |
| CC1(C)CN(c2cnn3c2CN(C(=O)c2cc4cc(F)ccc4[nH]2)CC3)C(=O)O1 [Compound 2.6] | < 100 |
| CC1(C)CN(c2cnn3c2CN(C(=O)c2[nH]c4ccccc4c2C#N)CC3)C(=O)O1 [Compound 2.4] | > 1000 |
| CC1(C)COC(=O)N(c2cnn3c2CN(C(=O)c2cc4ccccc4[nH]2)CC3)C1 [Compound 3.3] | 100 to 1000 |
| CC1(C)CCN(c2cnn3c2CN(C(=O)c2cc4ccccc4[nH]2)CC3)C1=O [Compound 1.1, 1-(5-(1H-indole-2-carbonyl)-4,5,6,7-tetrahydropyrazolo[1,5-a]pyrazin-3-yl)-3,3-dimethylpyrrolidin-2-one] | > 1000 |
| CC1(C)CN(c2cnn3c2CN(C(=O)c2cc4cccc(F)c4[nH]2)CC3)C(=O)O1 [Compound 2.17] | 100 to 1000 |
| COc1ccc2[nH]c(C(=O)N3CCn4ncc(N5CC(C)(C)OC5=O)c4C3)cc2c1 [Compound 2.10] | > 1000 |
| Cc1cccc2cc(C(=O)N3CCn4ncc(N5CC(C)(C)OC5=O)c4C3)[nH]c12 [Compound 2.18] | 100 to 1000 |
| CC1(C)CN(c2cnn3c2CN(C(=O)c2cc4ccc(F)cc4[nH]2)CC3)C(=O)O1 [Compound 2.7] | < 100 |
| C[C@H]1Cn2ncc(N3CC(C)(C)OC3=O)c2CN1C(=O)c1cc2ccccc2[nH]1 [Compound 2.23] | > 1000 |
| CC1(C)CN(c2cnn3c2CN(C(=O)c2cc4cccc(Cl)c4[nH]2)CC3)C(=O)O1 [Compound 2.9] | 100 to 1000 |
| COc1cccc2cc(C(=O)N3CCn4ncc(N5CC(C)(C)OC5=O)c4C3)[nH]c12 [Compound 2.19] | > 1000 |
| COC[C@@H]1CN(c2cnn3c2CN(C(=O)c2cc4ccccc4[nH]2)CC3)C(=O)O1 [Compound 3.2] | 100 to 1000 |
| O=C(c1cc2ccccc2[nH]1)N1CCc2noc(N3CCCCC3=O)c2C1 [Compound 4.1, 1-(5-(1H-indole-2-carbonyl)-4,5,6,7-tetrahydroisoxazolo[4,3-c]pyridin-3-yl)piperidin-2-one] | < 100 |
| Cc1ccc2[nH]c(C(=O)N3CCn4ncc(N5CC(C)(C)OC5=O)c4C3)cc2c1 [Compound 2.15] | 100 to 1000 |
| Cc1ccc2cc(C(=O)N3CCn4ncc(N5CC(C)(C)OC5=O)c4C3)[nH]c2c1 [Compound 2.12] | < 100 |

| Structure (SMILES) | EC50 [nM] |
| --- | --- |
| CC1(C)CN(c2cnn3c2CN(C(=O)c2cc4cnc(Cl)cc4[nH]2)CC3)C(=O)O1 [Compound 2.21] | 100 to 1000 |
| CC1(C)CC(=O)N(c2cnn3c2CN(C(=O)c2cc4ccccc4[nH]2)CC3)C1 [Compound 1.2] | 100 to 1000 |
| CC1(C)CN(c2cnn3c2CN(C(=O)c2cc4ccc(C#N)cc4[nH]2)CC3)C(=O)O1 [Compound 2.11] | 100 to 1000 |
| O=C(c1cc2ccccc2[nH]1)N1CCn2ncc(N3CCCCC3=O)c2C1 [Compound 1.6] | 100 to 1000 |
| CC1(C)CN(c2cnn3c2CN(C(=O)c2[nH]c4ccccc4c2Cl)CC3)C(=O)O1 [Compound 2.5] | > 1000 |
| Cc1cccc2[nH]c(C(=O)N3CCn4ncc(N5CC(C)(C)OC5=O)c4C3)cc12 [Compound 2.14] | < 100 |
| COc1ccc2cc(C(=O)N3CCn4ncc(N5CC(C)(C)OC5=O)c4C3)[nH]c2c1 [Compound 2.13] | 100 to 1000 |
| CCc1c(C(=O)N2CCn3ncc(N4CC(C)(C)OC4=O)c3C2)[nH]c2ccccc12 [Compound 2.3] | > 1000 |
| CC1(C)CN(c2cnn3c2CN(C(=O)c2cc4c(Cl)cccc4[nH]2)CC3)C(=O)O1 [Compound 2.20] | < 100 |
| CC1(C)CN(c2cnn3c2CN(C(=O)c2cc4ccc(Cl)cc4[nH]2)CC3)C(=O)O1 [Compound 2.8] | < 100 |
| O=C(c1cc2ccccc2[nH]1)N1CCn2ncc(N3CCOCC3=O)c2C1 [Compound 1.4] | 100 to 1000 |
| CC1(C)CN(c2cnn3c2CN(C(=O)c2cc4c(F)cccc4[nH]2)CC3)C(=O)O1 [Compound 2.22] | < 100 |
| CC1(C)CN(c2cnn3c2CN(C(=O)c2cc4ccccc4[nH]2)CC3)C(=O)O1 [Compound 2.1, 3-(5-(1H-indole-2-carbonyl)-4,5,6,7-tetrahydropyrazolo[1,5-a]pyrazin-3-yl)-5,5-dimethyloxazolidin-2-one] | < 100 |
| COC[C@H]1CN(c2cnn3c2CN(C(=O)c2cc4ccccc4[nH]2)CC3)C(=O)O1 [Compound 3.1, (R)-3-(5-(1H-indole-2-carbonyl)-4,5,6,7-tetrahydropyrazolo[1,5-a]pyrazin-3-yl)-5-(methoxymethyl)oxazolidin-2-one] | < 100 |
| CC1(C)CN(c2cnn3c2CN(C(=O)c2cc4cc(Cl)ccc4[nH]2)CC3)C(=O)O1 [Compound 2.16] | 100 to 1000 |
| Cc1c(C(=O)N2CCn3ncc(N4CC(C)(C)OC4=O)c3C2)[nH]c2ccccc12 [Compound 2.2] | > 1000 |
